From US20260103438A1, “PROBES AND METHODS TO IDENTIFY LIGANDABLE FATTY ACYLATION SITES FOR THERAPEUTIC TARGET IDENTIFICATION” (The General Hospital Corporation, priority 2022, published 2026)

Legend:
PCNA = PCNA (Homo sapiens, UniProt P12004); assay: Auto-palmitoylation of recombinant PCNA with Alkyne Palmitoyl-CoA (western blot); conditions: indicated concentrations, 30 mins (FIG. 6A)
RAP1A = biological target: T1, RAP1A (Homo sapiens, UniProt P62834); assay: Auto-palmitoylation of recombinant RAP1A with Alkyne Palmitoyl-CoA (western blot); conditions: indicated concentrations, 30 mins (FIG. 6B)
T1 sequence (P62834 1-184): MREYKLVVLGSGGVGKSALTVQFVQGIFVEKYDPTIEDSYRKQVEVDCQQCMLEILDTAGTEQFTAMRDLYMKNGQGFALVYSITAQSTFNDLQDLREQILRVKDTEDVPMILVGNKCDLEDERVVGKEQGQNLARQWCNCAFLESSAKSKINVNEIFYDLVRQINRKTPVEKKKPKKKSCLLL

RRAS2 = biological target: T2, RRAS2 (Homo sapiens, UniProt P62070); assay: Auto-palmitoylation of recombinant RRAS2 with Alkyne Palmitoyl-CoA (western blot); conditions: indicated concentrations, 30 mins (FIG. 6C)
T2 sequence (P62070 1-204): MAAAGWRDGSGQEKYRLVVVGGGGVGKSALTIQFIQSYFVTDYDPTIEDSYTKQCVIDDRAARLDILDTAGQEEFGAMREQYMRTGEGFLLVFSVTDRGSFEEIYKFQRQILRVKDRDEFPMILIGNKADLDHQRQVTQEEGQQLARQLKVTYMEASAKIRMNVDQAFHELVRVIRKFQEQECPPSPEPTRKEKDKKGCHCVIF

IDH1WT = IDH1WT (Homo sapiens, UniProt O75874); assay: Auto-palmitoylation of recombinant IDH1 WT with Alkyne Palmitoyl-CoA (western blot); conditions: indicated concentrations, 30 mins (FIG. 6D)
HEK293A cells = assay: MS-based proteomics of proteins enriched by covalent probes; assay type: cell-based; conditions: for number of proteins collectively targeted by Compound A21, Compound B1 and Compound B4: HEK293A cells, Venn diagram (FIG. 4); for number of proteins enriched by the covalent probes also identified by SLC-ABPP: overlap with SLC-ABPP database (FIG. 5)
Experimental: For in-cell labeling, HEK293A cells with or without overexpression of proteins of interest were starved in DMEM medium with 10% dialyzed fetal bovine serum (DFBS) for 1 h and labeled using the covalent probes (10 μM) overnight. The cells were then washed and harvested using cold DPBS (14190250, Life Technologies). The cell pellets were isolated by centrifugation (500×g, 10 min) and lysed by TEA lysis buffer (50 mM TEA-HCl, pH 7.4, 150 mM NaCl, 1% Triton X-100, 0.2% SDS, 1×Protease inhibitor-EDTA free cocktail (05892791001, Roche), phosphatase inhibitor cocktail (P0044, Sigma-Aldrich)) on ice for 30 mins. The protein concentration was determined using Bio-Rad assay and adjusted to 1 mg/mL. For lysate labeling, HEK293A cells were grown in DMEM with 10% FBS. When confluence reached ˜90%, the cells were washed and harvested by cold DPBS. The cell pellets were isolated by centrifugation (500×g, 5 min) and resuspended with TEA lysis buffer (50 mM TEA-HCl, pH 7.4, 150 mM NaCl, 1% Triton X-100, IXProtease inhibitor-EDTA free cocktail, phosphatase inhibitor cocktail), incubated on ice for 15 mins, and then sonicated (7 s, 30% duty cycle, output setting=3). After centrifugation (17,000×g, 10 min), the supernatant is transferred to a clean tube. The protein concentration is determined using Bio-Rad assay and adjusted to 1 mg/mL. The lysate was then labeled with DMSO or probes (10 μM) at room temperature for 1 h with rotation. SDS was added to the lysate to a final concentration of 0.2% and the resultant solution retained for further use.
To 1.5 mg of proteomes from cell labeling or lysate labeling as described above were added 150 μL fresh prepared “click” mixture of TBTA (75 μL, 2 mM in 1:4 DMSO: t-BuOH), CuSO4 (30 μL, 50 mM in H2O), TCEP (30 μL, 50 mM in H2O) and Biotin-Azide (15 μL, 10 mM in DMSO). The samples were rotated at room temperature for 1 h. To these samples were then added MeOH (6 mL), CHCl3 (1.5 mL) and H2O (4.5 mL), and the resultant solution was mixed well. After centrifugation (17,000×g, 10 min), the aqueous layers were carefully aspirated leaving a protein disc between the organic and aqueous phases. The protein disc was washed with 6 mL of methanol and isolated by centrifugation (17,000×g, 10 min). The remaining protein pellet was collected and redissolved with 700 μL of 2% SDS in 0.1% PBST. The solution was diluted with 4.9 mL of 0.1% PBST and added 0.1% PBST-washed streptavidin agarose beads (150 μL, 1:1, sigma). After rotation at room temperature for 2 h, the beads were then pelleted by centrifugation (500×g, 5 min) and washed with 0.2% SDS in PBS (3×1 mL). The beads were transferred to a Protein Low-Binding tube and the immobilized proteins were digested by addition of urea (200 μL, 2.0 M in DPBS), CaCl2) (2.0 μL, 100 mM in H2O) and sequence grade porcine trypsin (2 μg; Promega). After digesting overnight at 37° C., the supernatant was transferred to a clean Protein Low-Binding, acidified with HCO2H (formic acid, 16 μL) and stored at −20° C. until the analyzed by LC-MS/MS.

TEAD2 = TEAD2 (Homo sapiens, UniProt Q15562); assay: Labeling of TEAD2 by covalent probes in vitro (western blot); conditions: probe 1 μM, 30 mins, western blot (FIG. 1)
Myc-TEAD1 C344S mutant = biological target: T3, Myc-TEAD1 C344S mutant (Homo sapiens, UniProt P28347, C359S); assay: Labeling of transfected Myc-TEAD1 wild type or C344S mutant in HEK293A cells (streptavidin pulldown, western blot); assay type: cell-based; conditions: 10 μM overnight, C344S vs wild type (FIG. 3)
T3 construct: expressed in transfected cells; host or cells: HEK293A
Experimental: HEK293A cells was seed in 6 cm dishes overnight and transfected with plasmids using PEI reagent (1 μg/μL). Briefly, proteins of interest and PEI were diluted in serum-free DMEM medium in two tubes (DNA:PEI ratio=1:2). After standing still for 5 mins, the solutions were mixed well and allowed to stand unperturbed for an additional 20 mins. The mixture was then added to dishes directly.
For in-cell labeling, HEK293A cells with or without overexpression of proteins of interest were starved in DMEM medium with 10% dialyzed fetal bovine serum (DFBS) for 1 h and labeled using the covalent probes (10 μM) overnight. The cells were then washed and harvested using cold DPBS (14190250, Life Technologies). […] The protein concentration was determined using Bio-Rad assay and adjusted to 1 mg/mL. […] The protein concentration is determined using Bio-Rad assay and adjusted to 1 mg/mL. […]
100 μL of labeled proteome was treated with 10 μL of freshly prepared “click” mixture containing 1 mM TBTA, 10 mM TCEP, 10 mM CuSO4, 1 mM Biotin-Azide and incubated for 1 h at room temperature. […] The bound proteins were eluted with a buffer containing 10 mM EDTA (pH 8.2) and 95% formamide and analyzed with SDS-PAGE. […]

Chain of TEAD2 (Q15562 whole entry, species assumed): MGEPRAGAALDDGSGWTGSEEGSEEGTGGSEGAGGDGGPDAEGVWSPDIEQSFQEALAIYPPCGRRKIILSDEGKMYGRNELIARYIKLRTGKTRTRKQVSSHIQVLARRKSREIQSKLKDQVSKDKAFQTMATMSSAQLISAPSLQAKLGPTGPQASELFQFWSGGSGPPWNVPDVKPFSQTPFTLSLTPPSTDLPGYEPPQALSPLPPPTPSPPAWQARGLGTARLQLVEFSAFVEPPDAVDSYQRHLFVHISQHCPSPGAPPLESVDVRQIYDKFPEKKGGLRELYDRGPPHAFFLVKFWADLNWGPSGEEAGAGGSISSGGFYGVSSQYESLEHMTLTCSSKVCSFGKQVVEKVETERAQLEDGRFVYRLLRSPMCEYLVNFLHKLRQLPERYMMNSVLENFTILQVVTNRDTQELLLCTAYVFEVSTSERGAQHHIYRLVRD
T3 sequence (P28347 16-426 C359S limits assumed): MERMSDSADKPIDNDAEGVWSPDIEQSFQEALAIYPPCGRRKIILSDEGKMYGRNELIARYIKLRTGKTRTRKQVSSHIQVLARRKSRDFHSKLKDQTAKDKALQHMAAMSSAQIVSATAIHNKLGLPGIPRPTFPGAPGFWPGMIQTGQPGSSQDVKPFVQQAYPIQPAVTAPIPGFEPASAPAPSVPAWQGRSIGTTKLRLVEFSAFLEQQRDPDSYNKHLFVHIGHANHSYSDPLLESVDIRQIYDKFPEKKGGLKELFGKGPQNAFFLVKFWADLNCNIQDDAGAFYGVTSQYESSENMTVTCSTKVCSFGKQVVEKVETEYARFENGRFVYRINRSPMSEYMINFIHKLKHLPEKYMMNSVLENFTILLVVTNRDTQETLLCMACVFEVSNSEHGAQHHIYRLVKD
Chain of PCNA (P12004 whole entry): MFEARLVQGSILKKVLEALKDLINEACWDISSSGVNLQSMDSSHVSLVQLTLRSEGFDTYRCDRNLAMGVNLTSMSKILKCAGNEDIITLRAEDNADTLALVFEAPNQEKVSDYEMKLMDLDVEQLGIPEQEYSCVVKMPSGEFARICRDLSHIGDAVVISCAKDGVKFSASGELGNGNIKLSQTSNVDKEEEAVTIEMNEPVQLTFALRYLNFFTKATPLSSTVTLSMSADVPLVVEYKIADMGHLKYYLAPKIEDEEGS
Chain of IDH1WT (O75874 whole entry): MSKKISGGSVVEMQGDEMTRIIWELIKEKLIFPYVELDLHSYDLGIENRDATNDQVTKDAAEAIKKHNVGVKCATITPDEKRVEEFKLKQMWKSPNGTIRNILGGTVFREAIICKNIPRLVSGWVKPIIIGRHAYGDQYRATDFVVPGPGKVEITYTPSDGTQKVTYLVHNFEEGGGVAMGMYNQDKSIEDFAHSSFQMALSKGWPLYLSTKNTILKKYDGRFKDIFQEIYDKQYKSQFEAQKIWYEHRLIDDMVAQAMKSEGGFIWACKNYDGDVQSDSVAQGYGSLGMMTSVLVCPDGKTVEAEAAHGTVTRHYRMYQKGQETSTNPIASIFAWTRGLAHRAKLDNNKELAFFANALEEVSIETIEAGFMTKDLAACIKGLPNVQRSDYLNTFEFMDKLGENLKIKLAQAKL

| labeling efficiency of TEAD2 (TEAD2) | Structure (SMILES) | number of proteins collectively targeted by Compound A21, Compound B1 and Compound B4 (HEK293A cells) | number of proteins enriched by the covalent probes also identified by SLC-ABPP (HEK293A cells) | further results |
| --- | --- | --- | --- | --- |
|  | C#CCCCCCCCCCCCCCC(=O)SCCNC(=O)CCNC(=O)[C@H](O)C(C)(C)COP(=O)(O)OP(=O)(O)OC[C@H]1O[C@@H](n2cnc3c(N)ncnc32)[C@H](O)[C@@H]1OP(=O)(O)O [Alkyne Palmitoyl-CoA] |  |  | auto-palmitoylation (labeling) of PCNA (PCNA): auto-palmitoylated in a dose dependent manner; auto-palmitoylation (labeling) of RAP1A (RAP1A): auto-palmitoylated in a dose dependent manner; auto-palmitoylation (labeling) of RRAS2 (RRAS2): auto-palmitoylated in a dose dependent manner; auto-palmitoylation (labeling) of IDH1 WT (IDH1WT): auto-palmitoylated in a dose dependent manner |
| strong labeling efficiency | C#CCCCCCCCCCCCCCCNC(=O)CI [Compound A21, N-(hexadec-15-yn-1-yl)-2-iodoacetamide] | One hundred and sixty | 191 proteins |  |
| strong labeling efficiency | C#CCCCCCCCCCCCCCCNS(=O)(=O)C=C [Compound A26, N-(hexadec-15-yn-1-yl)ethenesulfonamide] |  |  |  |
| strong labeling efficiency | C#CCCCCCCCCCCCCNC(=O)CI [Compound A63, 2-iodo-N-(tetradec-13-yn-1-yl)acetamide] |  |  |  |
| strong labeling efficiency | C#CCCCCCCCCCCCCNS(=O)(=O)C=C [Compound A64, N-(tetradec-13-yn-1-yl)ethenesulfonamide] |  |  |  |
| strong labeling efficiency | C#CCCCCCCCCCCCCCCNC(=O)CBr [Compound B1, 2-bromo-N-(hexadec-15-yn-1-yl)acetamide] | One hundred and sixty | 191 proteins |  |
| strong labeling efficiency | C#CCCCCCCCCCCCCNC(=O)CBr [Compound B4, 2-bromo-N-(tetradec-13-yn-1-yl)acetamide] | One hundred and sixty | 191 proteins | effect of mutating cysteine 344 (C344S) on labeling of Myc-TEAD1 by the probe (Myc-TEAD1 C344S mutant): inhibited labeling |
